{"source": "patent US20210322415A1", "about": "(priority 2016, published 2021)", "key": {"tumors": {"test_system": "tumors", "details": "reported in literature; cited from earlier work"}, "[1]": {"test_system": "OV2022 tumour (ovarian cancer) xenografts", "test": "OV2022 patient derived tumour xenograft efficacy study", "assay_type": "in vivo", "details": "3 mg/kg, 5 days on 2 days off vs daily, alone or with 100 mg/kg olaparib"}, "[2]": {"test_system": "SW620, Calu6 and A498 tumor xenografts", "test": "Tumor xenograft efficacy studies with intermittent dosing", "assay_type": "in vivo, nude or scid mice", "details": "for anti-tumor effects: oral once daily", "from_the_text": "Tumors were selected and randomized into groups when tumor volume reached approximately 0.2 cm^3. […] Groups of 10 animals were used, however in the final cycle cohorts of 5 animals were removed in between dosing group to support assessment of pharmacodynamic biomarkers in the tumor."}, "c-kit": {"molecular_target": "c-kit (Homo sapiens, UniProt P10721)", "sequence (P10721 26-976)": "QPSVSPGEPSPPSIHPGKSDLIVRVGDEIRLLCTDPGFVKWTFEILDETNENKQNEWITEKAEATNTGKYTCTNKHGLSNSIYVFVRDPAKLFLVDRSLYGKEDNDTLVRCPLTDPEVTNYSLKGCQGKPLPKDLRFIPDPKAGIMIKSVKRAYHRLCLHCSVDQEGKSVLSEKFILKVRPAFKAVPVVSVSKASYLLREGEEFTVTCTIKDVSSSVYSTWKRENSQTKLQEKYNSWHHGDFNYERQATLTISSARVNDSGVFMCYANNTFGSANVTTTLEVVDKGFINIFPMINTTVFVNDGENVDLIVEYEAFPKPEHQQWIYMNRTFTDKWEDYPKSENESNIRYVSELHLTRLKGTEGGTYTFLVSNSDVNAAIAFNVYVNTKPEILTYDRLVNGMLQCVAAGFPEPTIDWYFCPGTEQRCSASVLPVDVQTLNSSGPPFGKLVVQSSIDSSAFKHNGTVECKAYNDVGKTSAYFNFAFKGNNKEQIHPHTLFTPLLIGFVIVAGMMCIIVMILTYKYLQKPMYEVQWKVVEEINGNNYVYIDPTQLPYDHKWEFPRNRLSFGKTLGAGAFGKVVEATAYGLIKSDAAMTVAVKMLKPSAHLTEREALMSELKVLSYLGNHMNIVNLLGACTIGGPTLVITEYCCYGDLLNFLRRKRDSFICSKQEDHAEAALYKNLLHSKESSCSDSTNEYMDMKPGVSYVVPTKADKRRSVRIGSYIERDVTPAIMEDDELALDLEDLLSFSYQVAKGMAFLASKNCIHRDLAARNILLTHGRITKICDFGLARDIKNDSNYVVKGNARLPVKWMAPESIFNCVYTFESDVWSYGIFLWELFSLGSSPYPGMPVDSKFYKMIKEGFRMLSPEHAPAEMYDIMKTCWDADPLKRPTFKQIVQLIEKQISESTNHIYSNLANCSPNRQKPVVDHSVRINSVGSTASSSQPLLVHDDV", "test": "Target cover in pre-clinical models: modelled mean free plasma concentration vs cellular IC50", "assay_type": "in vivo", "details": "doses up to 2.4 mg/kg", "description": "4.8 mg/kg (FIGS. 1M-1P) following dosing zs regimens of once daily continuous (QDCont), once daily 5 days on 2 days off (QD5on2off), or once daily 4 days (QD4on3off). […] The reduction in PK is shown following the last dose of drug (at either 4 or 5 days dosing), and overlaid on each plot (horizontal lines) are the cellular IC50 values generated in vitro for inhibition of pVEGFR-1,-2, pKit, pPDGFRα and pPDGFRβ, as indicated. For the plots exemplifying VEGFR and Kit cover, R-P stands for receptor phosphorylation in a cell based assay; C-P stands for cell proliferation; for VEGFR plots, T-G stands for tubule growth in an endothelial-fibroblast co-culture assay. […] For the graphs depicting PDGFRα and β cover, inhibition of PDGFRα and PDGFRβ phosphorylation and PDGFBB or PDGFAA driven proliferation are shown together with the relevant cell lines."}}, "data": [{"smiles": "COc1cc2c(Oc3ccc4[nH]c(C)cc4c3F)ncnc2cc1OCCCN1CCCC1.O=C(O)/C=C\\C(=O)O", "note": "[cediranib, 4-[(4-fluoro-2-methyl-1H-indol-5-yl)oxy]-6-methoxy-7-[3-(pyrrolidin-1-yl)propoxy]quinazoline maleate]", "values": [{"measurement": "tumor growth in a range of preclinical models", "setting": "tumors", "result": "inhibit the growth of tumors in a dose-dependent manner"}, {"measurement": "efficacy of intermittent schedule versus constant dose", "setting": "[1]", "result": "equivalent efficacy"}, {"measurement": "efficacy (mean tumor volume versus time)", "setting": "[2]; 1.5 mg/kg, 4/3 schedule, three 7-day cycles (FIG. 5)", "result": "in 2 out of the three models intermittent dosing of cediranib at 1.5 mg/kg on a 4/3 schedule maintains efficacy"}, {"measurement": "efficacy (mean tumor volume versus time)", "setting": "[2]; 1.5 mg/kg, 5/2 schedule, three 7-day cycles (FIG. 3)", "result": "maintains efficacy"}, {"measurement": "efficacy (mean tumor volume versus time)", "setting": "[2]; 3 mg/kg, 4/3 schedule, three 7-day cycles (FIG. 6)", "result": "maintains efficacy"}, {"measurement": "efficacy (mean tumor volume versus time)", "setting": "[2]; 3 mg/kg, 5/2 schedule, three 7-day cycles (FIG. 4)", "result": "maintains efficacy"}, {"measurement": "anti-tumor effects", "setting": "[2]; 4 days on 3 days off schedule", "result": "maintains anti-tumor effects albeit at not as effectively as the 5/2 schedule"}, {"measurement": "anti-tumor effects", "setting": "[2]; 5 days on 2 days off schedule, monotherapy", "result": "maintains anti-tumor effects"}, {"measurement": "anti-tumor activity, intermittent compared to daily schedule", "setting": "[2]; preclinical in vivo data, 5 days on/2 days off vs daily", "result": "no difference in anti-tumor activity"}, {"measurement": "target cover versus c-kit", "setting": "c-kit", "result": "achieving target cover"}]}]}
